Source: ChEMBL document CHEMBL1938343, “Lead optimisation of selective non-zinc binding inhibitors of MMP13. Part 2” (Bioorg Med Chem Lett, 2012)

Columns and labels:
[1] = molecular target: Matrix metalloproteinase-14 (Homo sapiens, UniProt P50281); experiment: Inhibition of MMP14 using Mca-Pro-cyclohexyl-Ala-Gly-Nva-His-Ala- Dap(Dnp)-NH2 as substrate by fluorometric analysis; conditions: read-out: IC50
Cytochrome P450 2D6 = Cytochrome P450 2D6 (Homo sapiens, UniProt P10635); experiment: Inhibition of CYP2D6; type: ADME; conditions: read-out: IC50
Chain of Cytochrome P450 2D6 (P10635 whole entry): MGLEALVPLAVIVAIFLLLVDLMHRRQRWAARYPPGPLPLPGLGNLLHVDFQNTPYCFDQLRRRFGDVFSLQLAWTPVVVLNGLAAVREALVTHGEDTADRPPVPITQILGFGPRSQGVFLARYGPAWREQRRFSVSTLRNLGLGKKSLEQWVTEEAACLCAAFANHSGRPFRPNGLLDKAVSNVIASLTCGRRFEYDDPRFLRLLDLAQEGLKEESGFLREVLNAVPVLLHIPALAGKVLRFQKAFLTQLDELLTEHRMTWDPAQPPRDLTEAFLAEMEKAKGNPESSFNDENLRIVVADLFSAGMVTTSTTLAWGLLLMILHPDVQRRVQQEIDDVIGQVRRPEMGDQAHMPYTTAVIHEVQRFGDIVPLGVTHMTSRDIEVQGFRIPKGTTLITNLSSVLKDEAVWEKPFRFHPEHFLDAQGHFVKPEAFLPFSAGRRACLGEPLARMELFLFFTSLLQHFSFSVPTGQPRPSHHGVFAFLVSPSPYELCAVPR

Interstitial collagenase = molecular target: T1, Interstitial collagenase (Homo sapiens, UniProt P03956); experiment: Inhibition of MMP1 using Mca-Pro-cyclohexyl-Ala-Gly-Nva-His-Ala- Dap(Dnp)-NH2 as substrate by fluorometric analysis
T1 sequence (P03956 whole entry): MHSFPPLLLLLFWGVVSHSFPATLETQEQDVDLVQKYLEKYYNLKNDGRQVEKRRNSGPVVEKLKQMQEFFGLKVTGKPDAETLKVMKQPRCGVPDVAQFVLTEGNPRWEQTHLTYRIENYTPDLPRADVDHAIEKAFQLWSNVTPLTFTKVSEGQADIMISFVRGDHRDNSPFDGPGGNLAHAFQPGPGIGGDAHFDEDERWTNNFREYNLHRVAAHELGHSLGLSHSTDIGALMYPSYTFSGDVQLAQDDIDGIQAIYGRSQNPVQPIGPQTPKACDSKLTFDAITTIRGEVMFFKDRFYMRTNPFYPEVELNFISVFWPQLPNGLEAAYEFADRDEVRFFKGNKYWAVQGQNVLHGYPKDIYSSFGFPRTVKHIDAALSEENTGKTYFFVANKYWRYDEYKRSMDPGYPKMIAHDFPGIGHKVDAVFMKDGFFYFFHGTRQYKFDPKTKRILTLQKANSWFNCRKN

[2] = Apparent permeability across apical to basolateral side in human Caco2 cells at 10 uM; type: ADME, cell-based; conditions: Caco-2
[3] = molecular target: Matrix metalloproteinase-9 (Homo sapiens, UniProt P14780); experiment: Inhibition of MMP9 using Mca-Pro-cyclohexyl-Ala-Gly-Nva-His-Ala- Dap(Dnp)-NH2 as substrate by fluorometric analysis; conditions: read-out: IC50
Chain of Matrix metalloproteinase-9 (P14780 whole entry): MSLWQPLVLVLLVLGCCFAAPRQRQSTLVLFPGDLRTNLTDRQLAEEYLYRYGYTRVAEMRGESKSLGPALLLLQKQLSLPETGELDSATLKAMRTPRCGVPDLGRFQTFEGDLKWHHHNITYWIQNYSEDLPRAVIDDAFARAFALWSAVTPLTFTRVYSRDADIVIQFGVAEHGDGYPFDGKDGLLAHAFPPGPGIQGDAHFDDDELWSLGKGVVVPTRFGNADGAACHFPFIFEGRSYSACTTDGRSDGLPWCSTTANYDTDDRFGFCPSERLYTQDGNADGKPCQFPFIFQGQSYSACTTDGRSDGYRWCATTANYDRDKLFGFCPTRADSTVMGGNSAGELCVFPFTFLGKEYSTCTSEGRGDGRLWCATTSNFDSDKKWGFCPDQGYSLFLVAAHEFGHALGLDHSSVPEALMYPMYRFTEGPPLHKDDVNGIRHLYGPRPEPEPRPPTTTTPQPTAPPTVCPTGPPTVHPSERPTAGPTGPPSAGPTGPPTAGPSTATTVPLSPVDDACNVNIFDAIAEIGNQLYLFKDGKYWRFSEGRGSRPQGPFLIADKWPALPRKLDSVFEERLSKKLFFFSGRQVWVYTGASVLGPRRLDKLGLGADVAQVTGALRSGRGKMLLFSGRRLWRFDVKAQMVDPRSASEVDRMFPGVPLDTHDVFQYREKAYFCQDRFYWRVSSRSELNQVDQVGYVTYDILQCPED

Cytochrome P450 3A4 = Cytochrome P450 3A4 (Homo sapiens, UniProt P08684); experiment: Inhibition of CYP3A4; type: ADME; conditions: read-out: IC50
Chain of Cytochrome P450 3A4 (P08684 whole entry): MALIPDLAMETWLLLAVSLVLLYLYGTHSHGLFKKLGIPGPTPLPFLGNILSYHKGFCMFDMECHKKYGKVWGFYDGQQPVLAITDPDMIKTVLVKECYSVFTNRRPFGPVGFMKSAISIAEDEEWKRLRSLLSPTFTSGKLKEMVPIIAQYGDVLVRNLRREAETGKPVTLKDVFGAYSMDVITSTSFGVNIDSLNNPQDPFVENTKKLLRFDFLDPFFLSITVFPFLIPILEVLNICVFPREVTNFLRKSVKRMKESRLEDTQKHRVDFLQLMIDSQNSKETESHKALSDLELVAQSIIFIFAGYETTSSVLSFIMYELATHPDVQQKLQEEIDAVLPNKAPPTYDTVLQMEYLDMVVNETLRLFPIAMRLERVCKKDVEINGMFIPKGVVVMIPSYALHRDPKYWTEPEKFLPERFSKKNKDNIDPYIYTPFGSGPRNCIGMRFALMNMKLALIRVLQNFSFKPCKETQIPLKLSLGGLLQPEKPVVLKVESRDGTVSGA

[4] = Thermodynamic solubility of the compound
[5] = molecular target: 72 kDa type IV collagenase (Homo sapiens, UniProt P08253); experiment: Inhibition of MMP2 using Mca-Pro-cyclohexyl-Ala-Gly-Nva-His-Ala- Dap(Dnp)-NH2 as substrate by fluorometric analysis; conditions: read-out: IC50
Chain of 72 kDa type IV collagenase (P08253 whole entry): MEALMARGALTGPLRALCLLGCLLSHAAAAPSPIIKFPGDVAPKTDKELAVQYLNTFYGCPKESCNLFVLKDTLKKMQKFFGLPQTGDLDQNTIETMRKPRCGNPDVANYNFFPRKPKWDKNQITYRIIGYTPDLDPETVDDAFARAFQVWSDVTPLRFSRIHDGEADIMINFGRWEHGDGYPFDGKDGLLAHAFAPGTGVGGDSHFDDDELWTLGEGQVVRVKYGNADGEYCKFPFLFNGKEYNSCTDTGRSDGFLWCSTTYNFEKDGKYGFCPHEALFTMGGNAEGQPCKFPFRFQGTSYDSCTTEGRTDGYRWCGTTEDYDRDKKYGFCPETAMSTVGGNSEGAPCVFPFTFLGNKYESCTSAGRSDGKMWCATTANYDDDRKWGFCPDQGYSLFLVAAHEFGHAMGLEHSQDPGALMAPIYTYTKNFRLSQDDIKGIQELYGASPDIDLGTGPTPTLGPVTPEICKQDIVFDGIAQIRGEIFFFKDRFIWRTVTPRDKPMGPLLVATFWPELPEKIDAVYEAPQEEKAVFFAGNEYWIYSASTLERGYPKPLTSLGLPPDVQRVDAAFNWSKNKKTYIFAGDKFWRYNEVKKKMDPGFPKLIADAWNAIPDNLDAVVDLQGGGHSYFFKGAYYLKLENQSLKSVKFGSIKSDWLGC

[6] = Cytotoxicity in mouse spleen macrophages assessed as phospholipidosis; conditions: Macrophage
[7] = Renal elimination in rat at 2 mg/kg, iv; type: ADME, organism-based; design: dose 2 mg/kg, route intravenous; conditions: urine, read-out: Ae
[8] = Half life in rat at 2 mg/kg, iv; type: ADME, organism-based; design: dose 2 mg/kg, route intravenous; conditions: in vivo
[9] = Volume of distribution at steady state in dog at 1 mg/kg, iv and 1 mg/kg, po; type: ADME, organism-based, Canis lupus familiaris; conditions: in vivo, read-out: Vdss
[10] = Apparent permeability across basolateral to apical side in human Caco2 cells at 10 uM; type: ADME, cell-based; conditions: Caco-2
Cytochrome P450 2C9 = Cytochrome P450 2C9 (Homo sapiens, UniProt P11712); experiment: Inhibition of CYP2C9; type: ADME; conditions: read-out: IC50
Chain of Cytochrome P450 2C9 (P11712 whole entry): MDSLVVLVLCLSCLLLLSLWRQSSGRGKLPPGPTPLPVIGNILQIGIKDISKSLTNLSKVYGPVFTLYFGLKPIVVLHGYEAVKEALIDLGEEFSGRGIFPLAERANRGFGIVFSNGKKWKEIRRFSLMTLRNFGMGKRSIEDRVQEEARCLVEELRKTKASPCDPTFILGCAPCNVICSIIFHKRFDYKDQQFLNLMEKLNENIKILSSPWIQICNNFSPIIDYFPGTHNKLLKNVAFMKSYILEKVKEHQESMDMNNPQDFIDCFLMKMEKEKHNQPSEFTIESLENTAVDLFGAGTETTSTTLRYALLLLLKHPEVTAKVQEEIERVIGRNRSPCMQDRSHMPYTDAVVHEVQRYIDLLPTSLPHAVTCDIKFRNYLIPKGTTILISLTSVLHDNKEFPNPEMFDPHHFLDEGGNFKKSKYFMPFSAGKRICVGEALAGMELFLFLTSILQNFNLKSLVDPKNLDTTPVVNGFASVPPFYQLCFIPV

[11] = Fraction unbound in dog; type: ADME, organism-based, Canis lupus familiaris; conditions: in vivo
[12] = Volume of distribution at steady state in rat at 2 mg/kg, iv; type: ADME, organism-based; design: dose 2 mg/kg, route intravenous; conditions: in vivo, read-out: Vdss
[13] = Fraction unbound in rat; type: ADME, organism-based; conditions: in vivo
[14] = Oral bioavailability in dog; type: ADME, organism-based, Canis lupus familiaris; conditions: in vivo
[15] = Intrinsic clearance in human hepatocytes assessed per 10^6 cells; type: ADME, cell-based, Hepatocyte; conditions: read-out: CLH
Cytochrome P450 2C19 = Cytochrome P450 2C19 (Homo sapiens, UniProt P33261); experiment: Inhibition of CYP2C19; type: ADME; conditions: read-out: IC50
Chain of Cytochrome P450 2C19 (P33261 whole entry): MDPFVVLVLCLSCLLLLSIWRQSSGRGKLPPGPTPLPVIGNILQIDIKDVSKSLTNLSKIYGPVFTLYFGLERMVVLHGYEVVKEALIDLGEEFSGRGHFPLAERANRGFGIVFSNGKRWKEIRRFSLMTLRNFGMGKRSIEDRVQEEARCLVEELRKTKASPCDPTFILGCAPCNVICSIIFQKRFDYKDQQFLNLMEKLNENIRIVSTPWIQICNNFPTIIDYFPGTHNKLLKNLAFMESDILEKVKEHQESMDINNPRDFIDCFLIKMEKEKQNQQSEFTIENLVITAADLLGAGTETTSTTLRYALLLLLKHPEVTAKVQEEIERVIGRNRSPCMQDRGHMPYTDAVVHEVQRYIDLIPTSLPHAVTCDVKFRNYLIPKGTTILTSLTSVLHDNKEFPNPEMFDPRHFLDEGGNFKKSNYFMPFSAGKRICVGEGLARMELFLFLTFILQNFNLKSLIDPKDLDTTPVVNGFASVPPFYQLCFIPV

[16] = molecular target: T2, Matrix metalloproteinase-19 (Homo sapiens, UniProt Q99542); experiment: Inhibition of MMP19 using Mca-Pro-cyclohexyl-Ala-Gly-Nva-His-Ala- Dap(Dnp)-NH2 as substrate by fluorometric analysis
T2 sequence (Q99542 whole entry): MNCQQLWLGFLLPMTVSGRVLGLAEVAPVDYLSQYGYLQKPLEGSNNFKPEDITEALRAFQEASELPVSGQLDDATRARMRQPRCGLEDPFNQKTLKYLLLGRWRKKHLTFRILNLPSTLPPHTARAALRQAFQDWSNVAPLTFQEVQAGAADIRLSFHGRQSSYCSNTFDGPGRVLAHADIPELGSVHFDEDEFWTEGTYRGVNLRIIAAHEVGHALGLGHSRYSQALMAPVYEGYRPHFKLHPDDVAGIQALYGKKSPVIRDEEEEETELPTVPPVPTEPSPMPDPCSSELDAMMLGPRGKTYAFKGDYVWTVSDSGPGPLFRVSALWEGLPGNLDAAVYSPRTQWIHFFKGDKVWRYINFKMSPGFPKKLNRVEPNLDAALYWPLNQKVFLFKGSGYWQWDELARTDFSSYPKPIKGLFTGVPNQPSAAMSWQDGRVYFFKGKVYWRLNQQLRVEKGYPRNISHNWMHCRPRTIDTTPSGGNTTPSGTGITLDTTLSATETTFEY

[17] = Lipophilicity, log D of the compound; conditions: octanol/water
Hepatocyte = experiment: Intrinsic clearance in Sprague-Dawley rat hepatocytes assessed per 10^6 cells; type: ADME, cell-based
[18] = Clearance in dog at 1 mg/kg, iv and 1 mg/kg, po; type: ADME, organism-based, Canis lupus familiaris; conditions: in vivo
[19] = Fraction unbound in human; type: ADME, organism-based; conditions: in vivo
[20] = Half life in dog at 1 mg/kg, iv and 1 mg/kg, po; type: ADME, organism-based, Canis lupus familiaris; conditions: in vivo
Stromelysin-1 = Stromelysin-1 (Homo sapiens, UniProt P08254); experiment: Inhibition of MMP3 using Mca-Pro-cyclohexyl-Ala-Gly-Nva-His-Ala- Dap(Dnp)-NH2 as substrate by fluorometric analysis
Chain of Stromelysin-1 (P08254 whole entry): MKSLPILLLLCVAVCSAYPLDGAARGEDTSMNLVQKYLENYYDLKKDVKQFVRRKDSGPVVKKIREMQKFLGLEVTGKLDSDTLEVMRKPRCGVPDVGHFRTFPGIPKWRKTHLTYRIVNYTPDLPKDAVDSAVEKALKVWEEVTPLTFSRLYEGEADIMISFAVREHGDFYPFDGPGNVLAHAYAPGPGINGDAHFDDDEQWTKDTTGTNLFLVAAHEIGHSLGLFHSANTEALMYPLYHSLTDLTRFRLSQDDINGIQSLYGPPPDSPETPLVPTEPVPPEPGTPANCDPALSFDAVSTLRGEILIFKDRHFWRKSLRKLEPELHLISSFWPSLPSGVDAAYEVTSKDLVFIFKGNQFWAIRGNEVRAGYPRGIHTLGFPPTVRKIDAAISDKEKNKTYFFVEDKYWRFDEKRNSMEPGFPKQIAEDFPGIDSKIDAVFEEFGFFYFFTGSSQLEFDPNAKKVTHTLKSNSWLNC

Rattus norvegicus = experiment: Oral bioavailability in rat; type: ADME, organism-based; conditions: in vivo
[21] = molecular target: Macrophage metalloelastase (Homo sapiens, UniProt P39900); experiment: Inhibition of MMP12 using Mca-Pro-cyclohexyl-Ala-Gly-Nva-His-Ala- Dap(Dnp)-NH2 as substrate by fluorometric analysis; conditions: read-out: IC50
Chain of Macrophage metalloelastase (P39900 whole entry): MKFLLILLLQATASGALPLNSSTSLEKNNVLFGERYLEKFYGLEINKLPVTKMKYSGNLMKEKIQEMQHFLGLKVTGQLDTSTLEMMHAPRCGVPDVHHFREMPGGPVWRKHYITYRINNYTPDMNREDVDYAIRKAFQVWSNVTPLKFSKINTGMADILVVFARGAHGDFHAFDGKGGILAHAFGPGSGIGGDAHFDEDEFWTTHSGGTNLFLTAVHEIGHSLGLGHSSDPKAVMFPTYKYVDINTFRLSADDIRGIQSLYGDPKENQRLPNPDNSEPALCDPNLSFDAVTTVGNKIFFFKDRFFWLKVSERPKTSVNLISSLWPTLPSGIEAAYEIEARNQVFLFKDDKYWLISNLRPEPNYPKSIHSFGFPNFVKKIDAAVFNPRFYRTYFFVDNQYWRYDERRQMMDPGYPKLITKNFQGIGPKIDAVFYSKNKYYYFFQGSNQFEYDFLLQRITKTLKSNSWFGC

For `O=C(NC1CCCS(=O)(=O)C1)c1ccc(Oc2ccc(C#C[C@]3(O)CN4CCC3CC4)cc2)cc1` (single isomer, unassigned; diastereomer 1), the IC50 [1] was > 10 µM, the IC50 (Cytochrome P450 2D6) was > 10 µM and the IC50 (Interstitial collagenase) was > 10 µM. The Papp A→B at 10 µM [2] was 1.3 ×10⁻⁶ cm/s, the IC50 [3] was > 10 µM and the IC50 (Cytochrome P450 3A4) was > 10 µM. For the same compound, the Therm_solubility [4] was 160 µM, the IC50 [5] was 5.1 µM and the EC50 [6] was 116 µM. The dose excreted [7] was < 1%, the half-life [8] was 4.8 h and the Vd [9] was 3.9 L/kg. The Papp B→A at 10 µM [10] was 43.5 ×10⁻⁶ cm/s, the IC50 (Cytochrome P450 2C9) was > 10 µM and the fraction unbound [11] was 0.33. It also gave a Vd [12] of 5.9 L/kg, a fraction unbound [13] of 0.27 and a bioavailability [14] of 21%. The hepatocyte CLint [15] was < 2 µL/min/1e6 cells, the IC50 (Cytochrome P450 2C19) was > 10 µM and the IC50 [16] was > 10 µM. It also gave a logD [17] of 1.4, a CLH (Hepatocyte) of 2.9 µL/min and a clearance [18] of 13 mL/min/kg. For the same compound, the fraction unbound [19] was 0.25, the half-life [20] was 5 h and the IC50 (Stromelysin-1) was > 10 µM. For the same compound, the F (Rattus norvegicus) was 35% and the IC50 [21] was > 10 µM.
